As usually defined, the melting point is the temperature, or range, at which the solid turns liquid. `O=c1ccc(-c2ccccc2Cl)n[nH]1`: the melting point lay within 214 to 216 °C. In the case of `CCCNC1=NS(=O)(=O)c2c(sc(C)c2C#N)N1`, the melting point was 293 to 298 °C.

`CCCN(CCC)Cc1nc(-c2ncn3c2CN(C)C(=O)c2c(Br)cccc2-3)no1` showed a melting point of 135 to 145 °C.

As to `COc1ccc(-c2nc3n(c2-c2ccccc2)Cc2ccccc2C3)cc1`, the melting point fell in the range of 172 to 173 °C. Then `CSC(SC)=C(C#N)C(=O)c1cc(C)ccc1C`, with 74.5 to 75.5 °C; and `Cc1nc2c(N)nc3ccccc3c2n1CCOCCS(C)(=O)=O`, with 214 to 217 °C; and `Cn1ccc(NC(=O)Nc2cccc3c2C2CC4(CCN2C3=O)SCCS4)n1` (configuration not stated), with 135 °C. In turn, `CNC(=NS(C)(=O)=O)NCc1cccc(-c2csc(N=C(N)N)n2)n1` came in with a melting point of 254 to 255 °C.

Regarding `O=C(O)CCCCc1cc2nc(Cl)ccc2n1S(=O)(=O)c1ccc2ncsc2c1`, the melting point was 169 °C. Then `CC/C=C\Cn1c(=S)sc2c(=O)[nH]c(N)nc21`, with over 320 °C. As to `CS(=O)c1nc(-c2ccc([N+](=O)[O-])cc2)c[nH]1` (configuration not stated), the melting point was 220 to 222 °C. Then `CC(C)N=C(NC#N)Nc1cc(C(F)(F)F)cc(C(F)(F)F)c1`, with 176 to 182 °C; and `O=C1OC(c2ccccc2)=NC1=Cc1cccnc1`, with 164 °C; and `O=c1c2c(Cc3ccccc3)n[nH]c2c2cccnc2n1-c1cccc(C(F)(F)F)c1`, with 226 to 228 °C. Then `CCOCc1nc2c(N)nc3cccnc3c2n1CCCCCC(N)=O`, with 215 to 217 °C.

`CS(=O)(=O)OCCCCCCc1ccc(OCc2coc(/C=C/c3ccccc3)n2)cc1`: the melting point lay in the range of 88 to 89 °C. Then `CN(CC(=O)O)[C@H]1CC[C@H](Nc2ncc3ncnc(Nc4ccc(F)c(Cl)c4)c3n2)CC1`, with 220 to 228 °C; and `COC(=O)c1ccc(NC(=O)C(=Cc2ccccc2)C(=O)C(C)C)cc1`, with 154 to 156 °C. Then `Cc1cc(C(O)(C(F)(F)F)C(F)(F)F)cc(C)c1NCCO`, with 110 to 113 °C; and `CCOc1ccnc(N2CCN(C(=O)c3ccccc3C=O)CC2)n1`, with 134 to 136 °C; and `COc1cc2ncc(C#N)c(Nc3cccc(CO)c3)c2cc1OC`, with 250 to 255 °C. Then `O=[N+]([O-])c1cccc(OCc2csc(-c3ccccc3)n2)c1`, with 112 to 114 °C.

Regarding `COc1cc(Nc2nccc(-c3cccc(NC(=O)c4cccnc4)c3)n2)cc(OC)c1OC`, the melting point lay within 140 to 143 °C.

The compound `CCOC(=O)C(=O)c1ccc(OCCCCC(=O)c2cc(C(C)(C)C)c(O)c(C(C)(C)C)c2)cc1` returned a melting point of 95 to 96 °C. Then `CCC1(CC)O[C@@H](C(=O)O)[C@H](c2ccccc2)N1C(=O)OC(C)(C)C`, with 185 °C; and `CC(=O)OC(=CC(=O)O)CC(=O)Nc1cccc(F)c1`, with 117 °C; and `CC(Cc1ccc(OCCCCCCCCCCCO)cc1)NCC(O)c1cccc(C(F)(F)F)c1` (configuration not stated), with 45 to 50 °C. The compound `COC(=O)CCc1cc2nc(Cl)ccc2n1S(=O)(=O)c1cc(OC)ccc1OC` gave a melting point of 127 °C. Regarding `O=C1CC[C@@H]2CCc3ccccc3[C@@H]2CN1Cc1ccccc1` (relative stereo), the melting point was 114 to 115 °C. Then `Cc1nc(-c2c(Cl)cc(C(F)(F)F)cc2Cl)[nH]c1[N+](=O)[O-]`, with 316 to 318 °C; and `N#Cc1nn(-c2c(Cl)cc(-c3ccc(C(F)(F)F)cc3)cc2Cl)c(N)c1S(=O)(=O)C(F)(F)F`, with 197 to 202 °C. For the compound `CCC(C)c1cc(Cc2cc(C(C)CC)c(N)c(C)c2Cl)c(Cl)c(C)c1N` (configuration not stated), the melting point lay within 94 to 102 °C. Then `Cc1cn([C@H]2CC[C@H](CC(=O)O)C[C@@H]2NC(=O)OC(C)(C)C)c(=O)n(COCc2ccccc2)c1=O`, with 89 to 91 °C. Then `O=C(Nc1cccc(-c2cnc(-c3cccc(NC(=O)c4ccccn4)c3)[nH]2)c1)c1ccccn1`, with 208 to 210 °C.

For `CCC(=O)c1sc(SC)c2c1CCc1cnn(C)c1-2`, the melting point lay in the range of 119 to 120 °C.

For `Cc1nc(C(N)=O)cn1-c1ccc(Cl)cc1`, the melting point fell in the range of 138 to 140 °C.

Turning to `Fc1nc(/C=C/c2ccccc2)cn1C(c1ccccc1)(c1ccccc1)c1ccccc1`, the melting point lay in the range of 167 to 170 °C.

As to `CC(C)Oc1nc(-c2ccc(=O)n(C(C)C)n2)c(-c2ccccc2)nc1N`, the melting point lay within 198 to 200 °C. The compound `CCCN1Cc2cncn2C(c2ccc(C#N)cc2)C1=O` (configuration not stated) showed a melting point of 97 to 98 °C.

`Cc1ccc(=O)n(-c2cc(F)c(C#N)cc2F)n1` gave a melting point of 159 °C. Then `CC(C(=O)O)c1ccc(-c2ccccc2F)c(O)c1` (configuration not stated), with 110 to 111 °C; and `O=C1N(CC(O)CO)c2ccccc2C12COc1cc3c(cc12)OCCO3` (configuration not stated), with 179 to 181 °C. Then `Cc1c(-c2ccccc2)oc2c(OCCN=[N+]=[N-])cccc2c1=O`, with 119 to 120 °C; and `CC(C)(C)NCC(O)c1cc(F)cc(C#N)c1F` (configuration not stated), with 99 to 101 °C. In the case of `CC(=O)c1ccc(S)cc1`, the melting point came to 71 °C. Take `CC1CCCN(C[C@@H]2COc3ccc(S(C)(=O)=O)cc3O2)C1` (some centres not stated): the melting point is 159 °C. Then `CC(C)(C)NS(=O)(=O)c1cnc(Cl)s1`, with 75 °C. The compound `CC(C)CNCc1cc2cc(NC(=O)c3ccc(C#CC4(O)CC4)cc3)ccc2n1C` registered a melting point of 172 to 174 °C.

Compound `COC(=O)c1nc(-c2ccc(Cl)c(OC)c2F)cc(N)c1C` registered a melting point of 122 to 125 °C. `CCCCCS(=O)(=O)NC(=O)CCc1cc(OC(C)C)nn1Cc1ccc(F)cc1F` gave a melting point of 107 to 108 °C. `CC(NC(Nc1cc(C(F)(F)F)cc(C(F)(F)F)c1)=C(C#N)S(=O)(=O)C(C)C)C(C)(C)C` (configuration not stated) showed a melting point of 177 to 180 °C.

Compound `COc1ccc2c3c1OC1C(=O)C(C)(C)C(C)C4C(C2)N(C)CCC314` (configuration not stated) had a melting point of 246 to 248 °C.

Compound `CC(C)(C)c1ccc2oc(-c3ccc(C=Cc4ccc(-n5ncc(-c6ccccc6)n5)cc4)cc3)nc2c1` registered a melting point of 230 to 231 °C. Then `CCN(Cc1ccc(Cl)nc1)C(=NC)C(=Cc1ccco1)[N+](=O)[O-]`, with 155 to 156 °C.

With `CN(C)C(=O)CCc1cc(-c2ccncc2)sc1-c1ccncc1`, the melting point is 166 to 167 °C.

With `CC(C)(C)N1CCc2c(C(=O)O)nc3c(C#N)cnn3c21`, the melting point lay in the range of 230 to 232 °C. In turn, `O=C(Nc1ccc(-n2nc(C(F)(F)F)cc2C(F)(F)F)cc1)c1cc(F)c(F)c(F)c1F` showed a melting point of 138 to 140 °C.

In turn, `O=C1c2cc3nnn(CCCc4cccc(F)c4)c(=O)c3cc2OC2CCCN12` (configuration not stated) gave a melting point of 145 to 148 °C. Compound `COc1cc(CC(=O)Nc2ccc(C(C)CC(=O)O)cc2)ccc1NC(=O)N1CCc2ccccc21` (configuration not stated) displayed a melting point of 152 to 154 °C. Compound `COc1c(Cl)cc(Cl)c(OC)c1C(=O)O` registered a melting point of 98 to 100 °C.

`O=C(O)c1cn(Cc2ccccc2)c2nc(N3CCNCC3)ncc2c1=O` displayed a melting point of 250 to 253 °C.

In the case of `O=c1[nH]nc(-c2ccccc2Nc2cccc(C(F)(F)F)c2)s1`, the melting point lay within 157 to 160 °C. On to `N=C(N)c1ccc(-n2cnn(-c3ccc(CCC(=O)O)cc3)c2=O)cc1`, for which the melting point fell in the range of 313 to 316 °C. Then `O=C(C=Cc1ccc(OCc2ccccc2)c([N+](=O)[O-])c1)Nc1ccc(Cl)cc1Cl`, with 152 to 153 °C; and `CNC(=O)c1ccc(C=CC(=O)NCC(=O)N(C)c2ccc(Cl)c(CO)c2Cl)cc1`, with 207 to 211 °C. Then `CNS(=O)(=O)OCCOc1ccc(Cl)cc1`, with 101 to 104 °C; and `CS(=O)(=O)c1ccc(CC(=S)N2CCOCC2)cc1`, with 198 to 199 °C; and `CN1C(C(=O)O)C(=O)c2ccccc2S1(=O)=O` (configuration not stated), with 144 to 146 °C. Then `COCc1cc(C(O)CNCCCCCCOCCCc2ccccc2)ccc1O` (configuration not stated), with 68 to 70 °C; and `Clc1nnc(Cl)c2sccc12`, with 260 to 263 °C. Compound `COCC1CN(C(=O)c2cc(OC)c(OC)c(OC)c2)CCN1C(=O)c1csc(-c2ccc(OC)c(OC)c2)n1` (configuration not stated) yielded a melting point of 149 to 151 °C.

As for `CCOC(=O)Cc1csc(-c2cccc(O)c2)n1`, the melting point lay within 95.5 to 97.2 °C. For `O=C(O)c1ccc(S(=O)(=O)Oc2ccc(-c3ccc(-c4c(C(=O)c5ccccc5)oc5ccccc45)cc3)cc2[N+](=O)[O-])cc1O`, the melting point was in the range of 105 to 107 °C. Then `Cc1ccc(S(=O)(=O)OCCOc2ccc3[nH]nc(S(=O)(=O)c4ccccc4)c3c2)cc1`, with 174 to 177 °C.

For `CCCCCOc1ccc(CC(C)C(=O)Oc2ccc(-c3ccc(CCC)cc3)cc2)cc1` (configuration not stated), the melting point is 84 to 84.5 °C. Then `c1ccc(CN2CCC3(CC(c4ccccc4)=NO3)C2)cc1` (configuration not stated), with 31 to 40 °C; and `COc1ccc(NC(C)=O)cc1OC(F)F`, with 129 to 130 °C; and `Cc1cccnc1OC(=O)Oc1ncccc1C`, with 110 to 112 °C.

For the compound `COC(=O)c1ccc([N+](=O)[O-])c(OCCO)c1`, the melting point was in the range of 97 to 98 °C. Then `COC(=O)c1nsnc1N`, with 142 to 143 °C; and `COC(=O)CCNC(=O)C(=Cc1ccccc1)CSC(=O)c1ccccc1`, with 66 °C. In turn, `COC(=O)c1c(F)c(F)c(N=[N+]=[N-])c(F)c1F` showed a melting point of 53.6 to 54.3 °C.

For `CCCCOCCOc1ccc(-c2ccc3c(c2)C=C(C(=O)Nc2ccc(S(=O)Cc4ncnn4C)cc2)CCN3CC(C)C)cc1` (configuration not stated), the melting point is 135 to 138 °C. Then `CCCOc1ccc(S(=O)(=O)N2CCN(CC)CC2)cc1-c1nc2cc3ncn(Cc4ccc(F)cc4)c3cc2c(=O)[nH]1`, with 155 to 158 °C. As to `C=CCc1cc2c(c(CC=C)c1O)CCC(=O)N2Cc1ccc(C(=O)O)cc1`, the melting point lay in the range of 242 to 246 °C.

The compound `CCc1cc2c(s1)C(C(=O)O)CC2=O` (configuration not stated) returned a melting point of 128 to 132 °C. `ClCCCn1c2ccccc2c2cc(-c3nc(-c4ccccc4)no3)ncc21` came in with a melting point of 192 to 195 °C.

(Values after a melting point compilation (Tetko et al.; mined from patent text by program, amines drawn as free bases though some values may be those of a salt).)
